Converted amounts (≈) assume the structure as drawn.
Key:
Type in all cases: cell-based
[1] = test system: Staphylococcus aureus CR (chloramphenicol resistant); assay: MIC, agar dilution method, S. aureus CR; conditions: Mueller-Hinton agar, 35° C., 24 hours
Description: (§1) The following in vitro results were obtained based on an agar dilution method except for C. pneumoniae. The activity is presented as the minimum inhibitory concentration (MIC).
(§2) S. aureus and M. catarrhalis were tested on Mueller-Hinton agar, using an approximate inoculum of 1×10^4 cfu/spot an incubation temperature of 35° C. for 24 hours. The MIC was defined as the lowest concentration at which no visible bacterial growth was observed.

[2] = test system: Streptococcus pneumoniae PRQR (penicillin resistant, quinolone resistant); assay: MIC, agar dilution method, S. pneumoniae PRQR; conditions: Mueller-Hinton agar with 5% defibrinated horse blood, 35° C., 5% CO2, 24 hours
Description: as §1
as §2, with “Streptococci” for “S. aureus”, “enterococci” for “M. catarrhalis”, “agar supplemented with 5% defibrinated horse blood,” for “agar,”, “C. in an atmosphere of 5% CO2” for “C.”

[3] = test system: Staphylococcus aureus MR (methicillin resistant); assay: MIC, agar dilution method, S. aureus MR; conditions: Mueller-Hinton agar, 35° C., 24 hours
Description: as §1, §2

[4] = test system: Streptococcus pyogenes IID692; assay: MIC, agar dilution method, S. pyogenes IID692; conditions: Mueller-Hinton agar with 5% defibrinated horse blood, 35° C., 5% CO2, 24 hours
Description: as §1
as §2, with “Streptococci” for “S. aureus”, “enterococci” for “M. catarrhalis”, “agar supplemented with 5% defibrinated horse blood,” for “agar,”, “C. in an atmosphere of 5% CO2” for “C.”

[5] = test system: Moraxella catarrhalis ATCC25238; assay: MIC, agar dilution method, M. catarrhalis ATCC25238; conditions: Mueller-Hinton agar, 35° C., 24 hours
Description: as §1, §2

[6] = test system: Streptococcus pneumoniae IID553; assay: MIC, agar dilution method, S. pneumoniae IID553; conditions: Mueller-Hinton agar with 5% defibrinated horse blood, 35° C., 5% CO2, 24 hours
Description: as §1
as §2, with “Streptococci” for “S. aureus”, “enterococci” for “M. catarrhalis”, “agar supplemented with 5% defibrinated horse blood,” for “agar,”, “C. in an atmosphere of 5% CO2” for “C.”

[7] = test system: Enterococcus faecium VRQR (vancomycin resistant, quinolone resistant); assay: MIC, agar dilution method, E. faecium VRQR; conditions: Mueller-Hinton agar with 5% defibrinated horse blood, 35° C., 5% CO2, 24 hours
Description: as §1
as §2, with “Streptococci” for “S. aureus”, “enterococci” for “M. catarrhalis”, “agar supplemented with 5% defibrinated horse blood,” for “agar,”, “C. in an atmosphere of 5% CO2” for “C.”

[8] = test system: Staphylococcus aureus Smith; assay: MIC, agar dilution method, S. aureus Smith; conditions: Mueller-Hinton agar, 35° C., 24 hours
Description: as §1, §2

| SMILES | MIC [1] [µg/mL] | MIC [2] [µg/mL] | MIC [3] [µg/mL] | MIC [4] [µg/mL] | MIC [5] [µg/mL] | MIC [6] [µg/mL] | MIC [7] [µg/mL] | MIC [8] [µg/mL] |
| --- | --- | --- | --- | --- | --- | --- | --- | --- |
| CC(=O)NC[C@H]1CN(c2ccc(-c3ccc(C4(N)CC4)nc3)cc2)C(=O)O1 [Example 5, N-[5(S)-3-[4-[2-(1-Aminocyclopropan-1-yl)pyridin-5-yl]phenyl]-2-oxooxazolidin-5-ylmethyl]acetamide] | 2 (≈ 5.46 µM) | 0.25 (≈ 0.682 µM) | 0.5 (≈ 1.36 µM) | 0.25 (≈ 0.682 µM) | 2 (≈ 5.46 µM) | 0.5 (≈ 1.36 µM) | 0.5 (≈ 1.36 µM) | 0.25 (≈ 0.682 µM) |
| N[C@@H]1[C@H]2CN(c3ccc(-c4ccc(N5C[C@H](Cn6ccnn6)OC5=O)cc4F)cn3)C[C@@H]12 [Example 32, 1-[5(R)-3-[4-[2-[(1α,5α,6α)-6-amino-3-azabicyclo[3.1.0]hexan-3-yl]pyridin-5-yl]-3-fluorophenyl]-2-oxooxazolidin-5-ylmethyl]-1,2,3-triazole] | 1 (≈ 2.3 µM) | 0.125 (≈ 0.287 µM) | 0.125 (≈ 0.287 µM) | 0.125 (≈ 0.287 µM) | 2 (≈ 4.59 µM) | 0.25 (≈ 0.574 µM) | 0.5 (≈ 1.15 µM) | 0.125 (≈ 0.287 µM) |
| N#CC1(c2ccc(-c3ccc(N4C[C@H](Cn5ccnn5)OC4=O)cc3)cn2)CC1 [Example 18, 1-[5(R)-3-[4-[2-(1-Cyanocyclopropan-1-yl)pyridin-5-yl]phenyl]-2-oxooxazolidin-5-ylmethyl]-1,2,3-triazole] | 1 (≈ 2.59 µM) | 0.125 (≈ 0.323 µM) | 0.06 (≈ 0.155 µM) | 0.06 (≈ 0.155 µM) | 0.5 (≈ 1.29 µM) | 0.125 (≈ 0.323 µM) | 0.125 (≈ 0.323 µM) | 0.06 (≈ 0.155 µM) |

Continued, values first:

| MIC [1] [µg/mL] | MIC [2] [µg/mL] | MIC [3] [µg/mL] | MIC [4] [µg/mL] | MIC [5] [µg/mL] | MIC [6] [µg/mL] | MIC [7] [µg/mL] | MIC [8] [µg/mL] | SMILES |
| --- | --- | --- | --- | --- | --- | --- | --- | --- |
| 0.5 (≈ 1.27 µM) | 0.125 (≈ 0.317 µM) | 0.125 (≈ 0.317 µM) | 0.125 (≈ 0.317 µM) | 0.5 (≈ 1.27 µM) | 0.125 (≈ 0.317 µM) | 0.125 (≈ 0.317 µM) | 0.06 (≈ 0.152 µM) | CC(=O)NC[C@H]1CN(c2ccc(-c3ccc(C4(C#N)CC4)nc3)c(F)c2)C(=O)O1 [Example 3, N-[5(S)-3-[4-[2-(1-Cyanocyclopropan-1-yl)pyridin-5-yl]-3-fluorophenyl]-2-oxooxazolidin-5-ylmethyl]acetamide] |
| 16 (≈ 47.4 µM) | 1 (≈ 2.96 µM) | 1 (≈ 2.96 µM) | 1 (≈ 2.96 µM) | 4 (≈ 11.9 µM) | 2 (≈ 5.93 µM) | 2 (≈ 5.93 µM) | 1 (≈ 2.96 µM) | CC(=O)NC[C@H]1CN(c2ccc(N3CCOCC3)c(F)c2)C(=O)O1 [Linezolid, reference compound] |
